According to patent publication US9919029B2, “Methods and pharmaceutical compositions for the treatment of bacterial infections” (INSERM (INSTITUT NATIONAL DE LA SANTE ET DE LA RECHERCHE …, priority 2013, dated 2018):

Tested on: Streptococcus pneumoniae
Test: Streptococcus pneumoniae respiratory infection in mice
Format: in vivo, BALB/c mice
Conditions: severe/advanced infection; nasal flagellin plus antibiotic (oral amoxicillin or intraperitoneal bactrim)
Procedure: Animals were infected with a lethal dose of Streptococcus pneumoniae (1-5×10^6 CFU of serotypel, clinical isolate E1586) and treated at 40 h and 48 h as depicted in the upper panel. Seventeen hours later (T=65 h), bacterial counts were defined by plating tissue homogenates. The Left side: bacterial counts per lung. Right side: bacterial counts per spleen.
Animals were infected with a lethal dose of Streptococcus pneumoniae (1-5×10^6 CFU of serotypel, clinical isolate E1586) and treated at 30 h as depicted in the upper panel. Sixteen hours later (T=46 h), bacterial counts were defined by plating tissue homogenates. The Left side: bacterial counts per lung. Right side: bacterial counts per spleen.
Animals were infected with a lethal dose of Streptococcus pneumoniae (1-5×10^6 CFU of serotypel, clinical isolate E1586) and treated from 12 h to 84 h as depicted in the upper panel. Survival of animals was then analyzed during 5 days.
FIG. 6. […] (A) S. pneumoniae-infected (2×10^6 CFU) BALB/c mice were treated intraperitoneally with 4.8 mg bactrim, i.e. co-trimoxazole (TMP-SMX) and intranasally with 2.5 μg flagellin FliCΔ174-400 and analyzed as indicated. (B) Survival was monitored every 12 h for 9 days. (C, D) Bacterial counts in lung (C) and spleen (D) was determined by measuring CFU per tissue. […] (E) The body weight of infected animals was measured and expressed relative to the initial weight. […]

Substance: flagellin
- reduction of number of bacteria compared to the antibiotic therapy alone: 10-to-50 fold
